System: MV-4-11 cells
Test: Gene expression microarray analysis (Affymetrix PrimeView) and GSEA
Assay type: cell-based, human
Set-up: RFU PODN (11730768_x_at) / Fold change /veh PODN (11730768_x_at) / RFU LINC00158 (11744669_a_at) / Fold change /veh LINC00158 (11744669_a_at) / RFU DUSP10 (11751237_a_at) / Fold change /veh DUSP10 (11751237_a_at) / RFU ID3 (11757404_x_at) / Fold change /veh ID3 (11757404_x_at) / RFU PLEKHG5 (11737974_s_at) / Fold change /veh PLEKHG5 (11737974_s_at) / RFU LRRC4B (11730491_at) / Fold change /veh LRRC4B (11730491_at) / RFU GIMAP4 (11747438_a_at) / Fold change /veh GIMAP4 (11747438_a_at) / RFU KRT8 (11758183_x_at) / Fold change /veh KRT8 (11758183_x_at) / RFU CNN1 (11734310_a_at) / Fold change /veh CNN1 (11734310_a_at) / RFU VPS37D (11726825_at) / Fold change /veh VPS37D (11726825_at) / RFU C10orf10 (11716522_x_at) / Fold change /veh C10orf10 (11716522_x_at) / RFU KIR2DL2 /// KIR2DL4 /// KIR2DL5A /// KIR2DL5B /// KIR2DS1 /// KIR2DS2 /// KIR2DS3 /// KIR2DS4 /// KIR3DL3 /// KIR3DL3 /// KIR3DS1 (11738374_at) / Fold change /veh KIR2DL2 /// KIR2DL4 /// KIR2DL5A /// KIR2DL5B /// KIR2DS1 /// KIR2DS2 /// KIR2DS3 /// KIR2DS4 /// KIR3DL3 /// KIR3DL3 /// KIR3DS1 (11738374_at) / RFU C1QL1 (11718748_at) / Fold change /veh C1QL1 (11718748_at) / RFU TMPRSS4 (11747572_a_at) / Fold change /veh TMPRSS4 (11747572_a_at) / RFU HAMP (11756126_x_at) / Fold change /veh HAMP (11756126_x_at) / RFU RNFT2 (11725882_a_at) / Fold change /veh RNFT2 (11725882_a_at) / RFU NR4A2 (11747474_a_at) / Fold change /veh NR4A2 (11747474_a_at) / RFU ABCC12 (11746883_a_at) / Fold change /veh ABCC12 (11746883_a_at) / RFU TMEM136 (11760407_x_at) / Fold change /veh TMEM136 (11760407_x_at) / RFU CLDN22 /// WWC2 (11732394_at) / Fold change /veh CLDN22 /// WWC2 (11732394_at) / RFU HLA-DPB1 (11760878_x_at) / Fold change /veh HLA-DPB1 (11760878_x_at) / RFU SPINT1 (11716480_a_at) / Fold change /veh SPINT1 (11716480_a_at) / RFU GAP43 (11754022_s_at) / Fold change /veh GAP43 (11754022_s_at) / RFU A4GNT (11735810_at) / Fold change /veh A4GNT (11735810_at) / RFU PRB3 (11715151_x_at) / Fold change /veh PRB3 (11715151_x_at) / RFU TUBB4B (11761932_at) / Fold change /veh TUBB4B (11761932_at) / RFU CAPN14 (11732068_a_at) / Fold change /veh CAPN14 (11732068_a_at) / RFU TMCC2 (11721928_a_at) / Fold change /veh TMCC2 (11721928_a_at) / RFU IRGQ (11745062_a_at) / Fold change /veh IRGQ (11745062_a_at) / RFU FAM174B (11720279_a_at) / Fold change /veh FAM174B (11720279_a_at) / RFU TMPRSS4 (11748680_a_at) / Fold change /veh TMPRSS4 (11748680_a_at) / RFU FAM212B (11763350_a_at) / Fold change /veh FAM212B (11763350_a_at) / RFU PLEKHG5 (11743358_a_at) / Fold change /veh PLEKHG5 (11743358_a_at) / RFU ZSCAN30 (11745921_a_at) / Fold change /veh ZSCAN30 (11745921_a_at) / RFU CMKLR1 (11741424_a_at) / Fold change /veh CMKLR1 (11741424_a_at) / RFU LOC101060620 /// MAPK8IP1 (11723275_at) / Fold change /veh LOC101060620 /// MAPK8IP1 (11723275_at) / RFU SPTSSB (11747773_x_at) / Fold change /veh SPTSSB (11747773_x_at) / RFU PRSS12 (11739890_at) / Fold change /veh PRSS12 (11739890_at) / RFU BIN1 (11741810_x_at) / Fold change /veh BIN1 (11741810_x_at) / RFU WNT11 (11732464_a_at) / Fold change /veh WNT11 (11732464_a_at) / RFU C10orf10 (11716521_a_at) / Fold change /veh C10orf10 (11716521_a_at) / RFU C5orf56 (11738089_at) / Fold change /veh C5orf56 (11738089_at) / RFU CYB561 (11721691_x_at) / Fold change /veh CYB561 (11721691_x_at) / RFU ANKRD19P (11752326_a_at) / Fold change /veh ANKRD19P (11752326_a_at) / RFU OR2T12 /// OR2T33 /// OR2T8 (11738714_s_at) / Fold change /veh OR2T12 /// OR2T33 /// OR2T8 (11738714_s_at) / RFU VCAN (11748164_a_at) / Fold change /veh VCAN (11748164_a_at) / RFU JSRP1 (11732532_at) / Fold change /veh JSRP1 (11732532_at) / RFU KRTAP10-11 (11738290_x_at) / Fold change /veh KRTAP10-11 (11738290_x_at) / RFU MYO3A (11730013_a_at) / Fold change /veh MYO3A (11730013_a_at) / RFU EBF3 (11725865_a_at) / Fold change /veh EBF3 (11725865_a_at) / RFU CAMK2N1 (11719241_x_at) / Fold change /veh CAMK2N1 (11719241_x_at) / RFU C5orf56 (11738088_a_at) / Fold change /veh C5orf56 (11738088_a_at) / RFU OLFML3 (11715873_a_at) / Fold change /veh OLFML3 (11715873_a_at) / RFU LOC100653217 /// NTM (11731650_a_at) / Fold change /veh LOC100653217 /// NTM (11731650_a_at) / RFU MAPK11 (11762145_a_at) / Fold change /veh MAPK11 (11762145_a_at) / RFU FIZ1 (11724087_x_at) / Fold change /veh FIZ1 (11724087_x_at) / RFU OASL (11726364_x_at) / Fold change /veh OASL (11726364_x_at) / RFU SOX15 (11748057_x_at) / Fold change /veh SOX15 (11748057_x_at) / RFU CD79A (11719716_a_at) / Fold change /veh CD79A (11719716_a_at) / RFU HIST1H1D (11736915_at) / Fold change /veh HIST1H1D (11736915_at) / RFU CASKIN2 (11723855_a_at) / Fold change /veh CASKIN2 (11723855_a_at) / RFU LOC730098 (11760151_x_at) / Fold change /veh LOC730098 (11760151_x_at) / RFU OR4N2 (11742367_at) / Fold change /veh OR4N2 (11742367_at) / RFU PRRT2 (11749266_a_at) / Fold change /veh PRRT2 (11749266_a_at) / RFU SNX32 (11753110_a_at) / Fold change /veh SNX32 (11753110_a_at) / RFU CDHR5 (11726645_a_at) / Fold change /veh CDHR5 (11726645_a_at) / RFU RCAN1 (11760418_a_at) / Fold change /veh RCAN1 (11760418_a_at) / RFU FAM167A (11723789_a_at) / Fold change /veh FAM167A (11723789_a_at) / RFU FAM26E (11764081_at) / Fold change /veh FAM26E (11764081_at) / RFU ISYNA1 (11749810_s_at) / Fold change /veh ISYNA1 (11749810_s_at) / RFU ACY1 (11761880_at) / Fold change /veh ACY1 (11761880_at) / RFU 11764098_at / Fold change /veh 11764098_at / RFU SAMD14 (11745864_x_at) / Fold change /veh SAMD14 (11745864_x_at) / RFU NPB (11741838_a_at) / Fold change /veh NPB (11741838_a_at) / RFU TMPRSS6 (11731388_a_at) / Fold change /veh TMPRSS6 (11731388_a_at) / RFU KRTAP10-2 (11738614_at) / Fold change /veh KRTAP10-2 (11738614_at) / RFU ARHGAP8 /// PRR5-ARHGAP8 (11727945_x_at) / Fold change /veh ARHGAP8 /// PRR5-ARHGAP8 (11727945_x_at) / RFU KRTAP5-7 /// NADSYN1 (11734609_at) / Fold change /veh KRTAP5-7 /// NADSYN1 (11734609_at) / RFU RASL12 (11751679_a_at) / Fold change /veh RASL12 (11751679_a_at) / RFU CDKN2B (11736163_a_at) / Fold change /veh CDKN2B (11736163_a_at) / RFU PRF1 (11729649_at) / Fold change /veh PRF1 (11729649_at) / RFU, ZNF638 /// ZNF638-IT1 / Fold change vs veh, ZNF638 /// ZNF638-IT1 / RFU, PANK3 / Fold change vs veh, PANK3 / RFU, SH3YL1 / Fold change vs veh, SH3YL1 / RFU, ZEB2 / Fold change vs veh, ZEB2 / RFU, NRIP1 / Fold change vs veh, NRIP1 / RFU, PTTG1IP / Fold change vs veh, PTTG1IP / RFU, CAPN2 / Fold change vs veh, CAPN2 / RFU, MED14 / Fold change vs veh, MED14 / RFU, SNORA58 / Fold change vs veh, SNORA58 / RFU, C1orf63 / Fold change vs veh, C1orf63 / RFU, LRRFIP1 / Fold change vs veh, LRRFIP1 / RFU, NDUFAF7 / Fold change vs veh, NDUFAF7 / RFU, SLC12A2 / Fold change vs veh, SLC12A2 / RFU, IBTK / Fold change vs veh, IBTK / RFU, ESF1 / Fold change vs veh, ESF1 / Fold change vs veh, TMEM50B / RFU, TAOK1 / Fold change vs veh, TAOK1 / RFU, ACBD3 / Fold change vs veh, ACBD3 / RFU, TMA16 / Fold change vs veh, TMA16 / RFU, RWDD3 / Fold change vs veh, RWDD3 / RFU, BCAT1 / Fold change vs veh, BCAT1 / RFU, EDEM3 / Fold change vs veh, EDEM3 / RFU, TMEM33 / Fold change vs veh, TMEM33 / RFU, WDR75 / Fold change vs veh, WDR75 / RFU, AHCTF1 / Fold change vs veh, AHCTF1 / RFU, TFRC / Fold change vs veh, TFRC / RFU, ZDHHC17 / Fold change vs veh, ZDHHC17 / RFU, NOM1 / Fold change vs veh, NOM1 / RFU, ARL8B / Fold change vs veh, ARL8B / RFU, ZBTB11 / Fold change vs veh, ZBTB11 / RFU, TAMM41 / Fold change vs veh, TAMM41 / RFU, KIAA1704 /// LOC100996395 / Fold change vs veh, KIAA1704 /// LOC100996395 / RFU, ING1 / Fold change vs veh, ING1 / RFU, TRMT61B / Fold change vs veh, TRMT61B / RFU, FUBP3 / Fold change vs veh, FUBP3 / RFU, TP53 / Fold change vs veh, TP53 / RFU, TNKS2 / Fold change vs veh, TNKS2 / RFU, ZFP14 / Fold change vs veh, ZFP14 / RFU, ACTR2 / Fold change vs veh, ACTR2 / RFU, PPP3R1 / Fold change vs veh, PPP3R1 / RFU, PIK3R1 / Fold change vs veh, PIK3R1 / RFU, HNRNPA1 / Fold change vs veh, HNRNPA1 / RFU, RNF170 / Fold change vs veh, RNF170 / RFU, ZNF28 / Fold change vs veh, ZNF28 / RFU, RNGTT / Fold change vs veh, RNGTT / RFU, OGT / Fold change vs veh, OGT / RFU, BRD1 / Fold change vs veh, BRD1 / RFU, MARS / Fold change vs veh, MARS / RFU, ZNF655 / Fold change vs veh, ZNF655 / RFU, FAHD1 / Fold change vs veh, FAHD1 / RFU, BDP1 / Fold change vs veh, BDP1 / RFU, LRRCC1 / Fold change vs veh, LRRCC1 / RFU, ARID1A / Fold change vs veh, ARID1A / RFU, ZNF146 / Fold change vs veh, ZNF146 / RFU, ZNF330 / Fold change vs veh, ZNF330 / RFU, GPN3 / Fold change vs veh, GPN3 / RFU, C9orf123 / Fold change vs veh, C9orf123 / RFU, N4BP2L2 / Fold change vs veh, N4BP2L2 / RFU, ARFIP1 / Fold change vs veh, ARFIP1 / RFU, FAM179B / Fold change vs veh, FAM179B / RFU, BCL10 / Fold change vs veh, BCL10 / RFU, UHRF1BP1L / Fold change vs veh, UHRF1BP1L / RFU, BET1 / Fold change vs veh, BET1 / RFU, CNOT2 / Fold change vs veh, CNOT2 / RFU, ZNF268 / Fold change vs veh, ZNF268 / Fold change vs veh, ZNF507 / RFU, DGCR2 / Fold change vs veh, DGCR2 / RFU, WDSUB1 / Fold change vs veh, WDSUB1 / Fold change vs veh, HSP90B1 /// MIR3652 / RFU, ADSS / Fold change vs veh, ADSS / RFU, GK / Fold change vs veh, GK / RFU, ZNF148 / Fold change vs veh, ZNF148 / RFU, TAF9 / Fold change vs veh, TAF9 / RFU, SLC1A5 / Fold change vs veh, SLC1A5 / RFU, SLMO2 / Fold change vs veh, SLMO2 / RFU, ABCC4 / Fold change vs veh, ABCC4 / RFU, LOC101060439 /// RAP1B / Fold change vs veh, LOC101060439 /// RAP1B / RFU, RFX7 / Fold change vs veh, RFX7 / RFU, GTPBP10 / Fold change vs veh, GTPBP10 / RFU, CNEP1R1 / Fold change vs veh, CNEP1R1 / RFU, BIVM-ERCC5 /// ERCC5 / Fold change vs veh, BIVM-ERCC5 /// ERCC5 / RFU, ILF3 / Fold change vs veh, ILF3 / RFU 11762660_at / Fold change /veh 11762660_at / RFU VCAN (11757783_s_at) / Fold change /veh VCAN (11757783_s_at) / RFU DDX43 (11728927_at) / Fold change /veh DDX43 (11728927_at) / RFU KRT8 (11758188_x_at) / Fold change /veh KRT8 (11758188_x_at) / RFU NKD1 (11759106_at) / Fold change /veh NKD1 (11759106_at) / RFU SRD5A1 (11742802_a_at) / Fold change /veh SRD5A1 (11742802_a_at) / RFU TPSAB1 /// TPSB2 (11721975_s_at) / Fold change /veh TPSAB1 /// TPSB2 (11721975_s_at) / RFU GSTM3 (11746129_a_at) / Fold change /veh GSTM3 (11746129_a_at) / RFU IL23R (11737362_x_at) / Fold change /veh IL23R (11737362_x_at) / RFU TMEM51 (11727254_a_at) / Fold change /veh TMEM51 (11727254_a_at) / RFU PIWIL2 (11732686_x_at) / Fold change /veh PIWIL2 (11732686_x_at) / RFU ORM1 (11744905_x_at) / Fold change /veh ORM1 (11744905_x_at) / RFU CCDC152 (11743942_at) / Fold change /veh CCDC152 (11743942_at) / RFU ECM1 (11717891_a_at) / Fold change /veh ECM1 (11717891_a_at) / RFU IL23R (11748794_a_at) / Fold change /veh IL23R (11748794_a_at) / RFU TNFAIP8L3 (11732012_x_at) / Fold change /veh TNFAIP8L3 (11732012_x_at) / RFU MBOAT4 (11741988_at) / Fold change /veh MBOAT4 (11741988_at) / RFU 11764193_at / Fold change /veh 11764193_at / RFU TMEM53 (11763286_at) / Fold change /veh TMEM53 (11763286_at) / RFU MAGEB2 (11727129_at) / Fold change /veh MAGEB2 (11727129_at) / RFU TMEM200A (11744735_a_at) / Fold change /veh TMEM200A (11744735_a_at) / RFU CCDC152 (11751479_a_at) / Fold change /veh CCDC152 (11751479_a_at) / RFU FAM211A (11726209_a_at) / Fold change /veh FAM211A (11726209_a_at) / RFU RGS16 (11746705_a_at) / Fold change /veh RGS16 (11746705_a_at) / RFU VCAN (11755009_s_at) / Fold change /veh VCAN (11755009_s_at) / RFU RHOB (11743442_s_at) / Fold change /veh RHOB (11743442_s_at) / RFU RGS16 (11720943_a_at) / Fold change /veh RGS16 (11720943_a_at) / RFU RGS16 (11720944_at) / Fold change /veh RGS16 (11720944_at) / RFU, VPS4B / Fold change vs veh, VPS4B / RFU, CREB1 / Fold change vs veh, CREB1 / RFU, DNAJC13 / Fold change vs veh, DNAJC13 / RFU, GNAQ / Fold change vs veh, GNAQ / RFU, CDK5R1 / Fold change vs veh, CDK5R1 / RFU, ZRANB3 / Fold change vs veh, ZRANB3 / RFU, CUL4A / Fold change vs veh, CUL4A / RFU, CCNY / Fold change vs veh, CCNY / RFU, UFL1 / Fold change vs veh, UFL1 / RFU, COG3 / Fold change vs veh, COG3 / RFU, DIAPH2 / Fold change vs veh, DIAPH2 / RFU, SKA2 / Fold change vs veh, SKA2 / RFU, AFF3 / Fold change vs veh, AFF3 / RFU, LMF1 / Fold change vs veh, LMF1 / RFU, IPO11 / Fold change vs veh, IPO11 / RFU, DFFB / Fold change vs veh, DFFB / RFU, FOXP1 / Fold change vs veh, FOXP1 / RFU, CARD8 / Fold change vs veh, CARD8 / RFU, STRN3 / Fold change vs veh, STRN3 / RFU, ADK / Fold change vs veh, ADK / RFU, RASSF2 / Fold change vs veh, RASSF2 / RFU, WIPF1 / Fold change vs veh, WIPF1 / RFU, LARP1B / Fold change vs veh, LARP1B / RFU, RASA1 / Fold change vs veh, RASA1 / RFU, RB1 / Fold change vs veh, RB1 / RFU, PPFIA1 / Fold change vs veh, PPFIA1 / RFU, MAT2A / Fold change vs veh, MAT2A / RFU, CCT5 / Fold change vs veh, CCT5 / RFU, WDR92 / Fold change vs veh, WDR92 / RFU, CUX1 / Fold change vs veh, CUX1 / RFU, TTC7A / Fold change vs veh, TTC7A / RFU, TMEM135 / Fold change vs veh, TMEM135 / RFU, DEPTOR / Fold change vs veh, DEPTOR / RFU, CPM / Fold change vs veh, CPM / RFU, DNAJB6 / Fold change vs veh, DNAJB6 / RFU, CACNA2D3 / Fold change vs veh, CACNA2D3 / RFU, DTX4 / Fold change vs veh, DTX4 / RFU, TFCP2 / Fold change vs veh, TFCP2 / RFU, GMCL1 /// GMCL1P1 / Fold change vs veh, GMCL1 /// GMCL1P1 / RFU, AEBP2 / Fold change vs veh, AEBP2 / RFU, SNHG1 /// SNORD22 /// SNORD25 /// SNORD26 /// SNORD27 /// SNORD28 /// SNORD29 /// SNORD31 / Fold change vs veh, SNHG1 /// SNORD22 /// SNORD25 /// SNORD26 /// SNORD27 /// SNORD28 /// SNORD29 /// SNORD31 / Fold change (Aza/veh), C12orf56 (ProbeSet 11735607_a_at) / Fold change (ACY-1035/veh), C12orf56 (ProbeSet 11735607_a_at) / Fold change (Aza/veh), FGFR1OP (ProbeSet 11751329_s_at) / Fold change (ACY-1035/veh), FGFR1OP (ProbeSet 11751329_s_at) / Fold change (Aza/veh), VPS36 (ProbeSet 11739960_a_at) / Fold change (ACY-1035/veh), VPS36 (ProbeSet 11739960_a_at) / RFU SYPL1 (11715823_x_at) / Fold change /veh SYPL1 (11715823_x_at) / RFU IGFBP7 (11715501_s_at) / Fold change /veh IGFBP7 (11715501_s_at) / RFU REEP3 (11722064_at) / Fold change /veh REEP3 (11722064_at) / RFU IGLL1 (11728026_x_at) / Fold change /veh IGLL1 (11728026_x_at): dose or concentration left out as unconfirmed
Conditions: ProbeSet 11758170_s_at; LIST D

## Nc1ncn([C@@H]2O[C@H](CO)[C@@H](O)[C@H]2O)c(=O)n1 [azacitidine]
  RFU, DIAPH2: 23.40 RFU

— PMC5218480 (PLoS ONE, 2017)
